In ChEMBL document CHEMBL3399960, “Cytochalasin derivatives from a jellyfish-derived fungus Phoma sp” (Bioorg Med Chem Lett, 2015):

Assays:
Assay type in all cases: functional, cell-based
A549 = experiment: Cytotoxicity against human A549 cells after 24 hrs by WST assay; details: A549, 24 h
KB = experiment: Cytotoxicity against human KB cells after 24 hrs by WST assay
[1] = Cytotoxicity against human HCT116 cells after 24 hrs by WST assay; details: HCT-116, 24 h

SMILES | IC50 (A549) | IC50 (KB) | IC50 [1]
CC1=C(C)[C@H]2[C@H](Cc3ccccc3)NC(=O)[C@]23OC(=O)CCC(=O)CCC[C@@H](C)C/C=C/[C@H]3[C@@H]1O | 37.3 µM | > 40 µM | > 40 µM
CC1=C[C@@H]2/C=C/C[C@H](C)CCCC/C=C/C(=O)O[C@]23C(=O)N[C@@H](Cc2ccccc2)[C@@H]3[C@@H]1C | 36.2 µM | 19.7 µM | 18.2 µM
CC1=C(C)[C@H]2[C@H](Cc3ccccc3)NC(=O)[C@]23OC(=O)CC[C@H](O)CCC[C@@H](C)C/C=C/[C@H]3[C@@H]1O | > 40 µM | > 40 µM | > 40 µM
CC1=C(C)[C@H]2[C@H](Cc3ccccc3)NC(=O)[C@]23OC(=O)/C=C/C(=O)CCC[C@@H](C)C/C=C/[C@H]3[C@@H]1O | 29.2 µM | 19.9 µM | 38.1 µM
COc1cccc2c1C(=O)c1c(O)c3c(c(O)c1C2=O)C[C@@](O)(C(=O)CO)C[C@@H]3O[C@H]1C[C@H](N)[C@H](O)[C@H](C)O1 [DOXORUBICIN] | 1.3 µM | 4.3 µM | 2.2 µM
C=C1[C@@H](C)[C@H]2[C@H](Cc3ccccc3)NC(=O)[C@]23OC(=O)CCC(=O)CCC[C@@H](C)C/C=C/[C@H]3[C@@H]1O | 39.3 µM | 37.3 µM | 39.3 µM
